In US7718647B2, “Substituted azepine derivatives as serotonin receptor modulators” (Athersys, Inc., priority 2004, dated 2010):
pEC50: −log10 of the molar value.

Target: T1, human 5HT2c receptor (Homo sapiens, UniProt P28335, I156V/I160V, form not given)
T1 sequence (P28335 1-458 I156V/N158S/I160V): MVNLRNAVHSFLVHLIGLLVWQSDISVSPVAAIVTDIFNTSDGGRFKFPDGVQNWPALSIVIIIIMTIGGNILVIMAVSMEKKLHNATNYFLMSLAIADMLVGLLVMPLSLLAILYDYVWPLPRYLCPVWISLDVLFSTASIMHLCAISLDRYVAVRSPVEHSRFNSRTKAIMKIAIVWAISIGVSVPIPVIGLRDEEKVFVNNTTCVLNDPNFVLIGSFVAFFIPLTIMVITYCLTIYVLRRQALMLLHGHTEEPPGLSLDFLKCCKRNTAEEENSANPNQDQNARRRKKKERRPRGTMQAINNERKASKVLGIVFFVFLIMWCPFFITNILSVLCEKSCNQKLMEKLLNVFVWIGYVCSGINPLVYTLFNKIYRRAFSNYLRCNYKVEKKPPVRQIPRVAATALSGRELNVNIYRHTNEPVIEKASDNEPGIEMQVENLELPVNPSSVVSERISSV
Test: Calcium mobilization (FLIPR) 5HT2c receptor agonist assay in HEK 293 EBNA cells
Assay type: cell-based
Conditions: agonist-stimulated calcium release, HEK 293 EBNA cells expressing human 5HT2c receptor, read-out: 5-HT2c EC50 (hVSV)

| Compound | pEC50 |
| --- | --- |
| CC1CNCCc2cc(Cl)sc21 (racemic) [Example 31, (R,S)-2-Chloro-8-methyl-5,6,7,8-tetrahydro-4H-thieno[2,3-d]azepine] | > 7.00 |
| COC1CNCCc2sc(Br)cc21 (racemic) [Example 33, (R,S)-2-Bromo-4-methoxy-5,6,7,8-tetrahydro-4H-thieno[2,3-d]azepine] | > 6.00 |
| Cc1sc2c3c1CCC3CNCC2 (racemic) [Example 38, (R,S)-2-Methyl-4,4a,5,6,7,8-hexahydro-3H-1-thia-6-aza-cyclopenta[cd]azulene] | > 6.00 |
| CC1CNCCc2sc(Br)c(Br)c21 (single isomer, unassigned) [32, Enantiomer 1] | > 5.00 |
| Cc1c(Br)sc2c1C(C)CNCC2 (single isomer, unassigned) [36, Enantiomer 1] | < 5.00 |
| Cc1c(Br)sc2c1C(C)CNCC2 (single isomer, unassigned) [36, Enantiomer 2] | > 6.00 |
| Brc1sc2c3c1CCC3CNCC2 (single isomer, unassigned) [37, Enantiomer 1] | > 6.00 |
| Brc1sc2c3c1CCC3CNCC2 (single isomer, unassigned) [37, Enantiomer 2] | > 7.00 |
| CC(C)(C)c1sc2c3c1CCC3CNCC2 (single isomer, unassigned) [39, Enantiomer 1] | > 7.00 |
| CC(C)(C)c1sc2c3c1CCC3CNCC2 (single isomer, unassigned) [39, Enantiomer 2] | > 8.00 |
| FC(F)(F)Oc1ccc(-c2cc3c(s2)CCNCC3)cc1 [Example 6, 2-(4-Trifluoromethoxy-phenyl)-5,6,7,8-tetrahydro-4H-thieno[2,3-d]azepine] | < 5.00 |
| FC(F)(F)c1ccccc1-c1cc2c(s1)CCNCC2 [Example 7, 2-(2-Trifluoromethyl-phenyl)-5,6,7,8-tetrahydro-4H-thieno[2,3-d]azepine] | < 5.00 |
| Fc1ccc(-c2cc3c(s2)CCNCC3)cc1 [Example 8, 2-(4-Fluoro-phenyl)-5,6,7,8-tetrahydro-4H-thieno[2,3-d]azepine] | > 5.00 |
| Fc1ccc(-c2cc3c(s2)CCNCC3)cc1Cl [Example 9, 2-(3-Chloro-4-fluoro-phenyl)-5,6,7,8-tetrahydro-4H-thieno[2,3-d]azepine] | < 5.00 |
| Clc1ccc(Cl)c(-c2cc3c(s2)CCNCC3)c1 [Example 10, 2-(2,5-Dichloro-phenyl)-5,6,7,8-tetrahydro-4H-thieno[2,3-d]azepine] | < 5.00 |
| CCc1ccc(-c2cc3c(s2)CCNCC3)cc1 [Example 11, 2-(4-Ethyl-phenyl)-5,6,7,8-tetrahydro-4H-thieno[2,3-d]azepine] | < 5.00 |

| Compound | pEC50 |
| --- | --- |
| COc1cccc(-c2cc3c(s2)CCNCC3)c1 [Example 12, 2-(3-Methoxy-phenyl)-5,6,7,8-tetrahydro-4H-thieno[2,3-d]azepine] | > 5.00 |
| c1ccc(-c2cc3c(s2)CCNCC3)cc1 [Example 13, 2-Phenyl-5,6,7,8-tetrahydro-4H-thieno[2,3-d]azepine] | > 5.00 |
| Fc1cccc(Cl)c1Cc1cc2c(s1)CCNCC2 [Example 14, 2-(2-Chloro-6-fluoro-benzyl)-5,6,7,8-tetrahydro-4H-thieno[2,3-d]azepine] | > 6.00 |
| Fc1cccc(Cl)c1Cc1sc2c(c1Br)CCNCC2 [Example 15, 3-Bromo-2-(2-chloro-6-fluoro-benzyl)-5,6,7,8-tetrahydro-4H-thieno [2,3-d]azepine] | > 5.00 |
| COc1c(Cl)sc2c1CCNCC2 [Example 19, 2-Chloro-3-methoxy-5,6,7,8-tetrahydro-4H-thieno[2,3-d]azepine] | > 6.00 |
| Brc1cc2c(s1)C1(CC1)CNCC2 [Example 25, 2-Bromo-8-spirocyclopropyl-5,6,7,8-tetrahydro-4H-thieno[2,3-d]azepine] | > 6.00 |
| O=C(NC1CCCC1)c1cc2c(s1)CCNCC2 [Example 29, 5,6,7,8-Tetrahydro-4H-thieno[2,3-d]azepine-2-carboxylic acid cyclopentylamide] | > 5.00 |
| CN(C)C(=O)c1cc2c(s1)CCNCC2 [Example 30, 5,6,7,8-Tetrahydro-4H-thieno[2,3-d]azepine-2-carboxylic acid dimethylamide] | > 6.00 |
| CC1(C)CNCCc2cc(Br)sc21 [Example 34, 2-Bromo-8,8-dimethyl-5,6,7,8-tetrahydro-4H-thieno[2,3-d]azepine] | > 5.00 |
| FC(F)(F)c1sc2c(c1Cl)CCNCC2 [Example 41, 3-Chloro-2-trifluoromethyl-5,6,7,8-tetrahydro-4H-thieno[2,3-d]azepine] | > 7.00 |
| Cc1csc2c1CCNCC2 [Example 43, 3-Methyl-5,6,7,8-tetrahydro-4H-thieno[2,3-d]azepine] | > 6.00 |
| CC(C)(C)c1cc2c(s1)CCNCC2 [Example 45, 2-tert-Butyl-5,6,7,8-tetrahydro-4H-thieno[2,3-d]azepine] | > 7.00 |
| CC(C)(C)c1sc2c(c1Cl)CCNCC2 [Example 46, 2-tert-Butyl-3-chloro-5,6,7,8-tetrahydro-4H-thieno[2,3-d]azepine] | > 7.00 |
| CC(C)(C)CC(C)(C)c1sc2c(c1Cl)CCNCC2 [Example 47, 3-Chloro-2-(1,1,3,3-tetramethyl-butyl)-5,6,7,8-tetrahydro-4H-thieno[2,3-d]azepine] | > 5.00 |
| Clc1csc2c1CCNCC2 [Example 48, 3-Chloro-5,6,7,8-tetrahydro-4H-thieno[2,3-d]azepine] | > 5.00 |
| Brc1cc2c(o1)CCNCC2 [Example 49, 2-Bromo-5,6,7,8-tetrahydro-4H-furo[2,3-d]azepine] | > 6.00 |

More lines, now with the values ahead:

| pEC50 | Compound |
| --- | --- |
| > 7.00 | CCC1CNCCc2sc(Br)cc21 (racemic) [Example 35, (R,S)-2-Bromo-4-ethyl-5,6,7,8-tetrahydro-4H-thieno[2,3-d]azepine] |
| > 7.00 | CC1CNCCc2sc(Br)c(Br)c21 (single isomer, unassigned) [32, Enantiomer 2] |
| > 8.00 | Brc1cc2c(s1)CCNCC2 [Example 1, 2-Bromo-5,6,7,8-tetrahydro-4H-thieno[2,3-d]azepine] |
| > 7.00 | Clc1cc2c(s1)CCNCC2 [Example 2, 2-Chloro-5,6,7,8-tetrahydro-4H-thieno[2,3-d]azepine] |
| > 8.00 | Brc1sc2c(c1Br)CCNCC2 [Example 3, 2,3-Dibromo-5,6,7,8-tetrahydro-4H-thieno[2,3-d]azepine] |
| > 8.00 | Clc1sc2c(c1Cl)CCNCC2 [Example 4, 2,3-Dichloro-5,6,7,8-tetrahydro-4H-thieno[2,3-d]azepine] |
| > 8.00 | Clc1c(Br)sc2c1CCNCC2 [Example 5, 2-Bromo-3-chloro-5,6,7,8-tetrahydro-4H-thieno[2,3-d]azepine] |
| > 8.00 | Cc1c(Br)sc2c1CCNCC2 [Example 16, 2-Bromo-3-methyl-5,6,7,8-tetrahydro-4H-thieno[2,3-d]azepine] |
| > 8.00 | COc1c(C)sc2c1CCNCC2 [Example 17, 3-Methoxy-2-methyl-5,6,7,8-tetrahydro-4H-thieno[2,3-d]azepine] |
| > 8.00 | COc1c(Br)sc2c1CCNCC2 [Example 18, 2-Bromo-3-methoxy-5,6,7,8-tetrahydro-4H-thieno[2,3-d]azepine] |
| > 8.00 | C=C(C)c1sc2c(c1OC)CCNCC2 [Example 20, 2-Isopropenyl-3-methoxy-5,6,7,8-tetrahydro-4H-thieno[2,3-d]azepine] |
| > 7.00 | Cc1c(C(C)(C)C)sc2c1CCNCC2 [Example 21, 2-tert-Butyl-3-methyl-5,6,7,8-tetrahydro-4H-thieno[2,3-d]azepine] |
| > 8.00 | COc1c(C(C)C)sc2c1CCNCC2 [Example 22, 2-Isopropyl-3-methoxy-5,6,7,8-tetrahydro-4H-thieno[2,3-d]azepine] |
| > 8.00 | O=S(=O)(c1cc2c(s1)CCNCC2)N1CCCC1 [Example 26, 2-(Pyrrolidine-1-sulfonyl)-5,6,7,8-tetrahydro-4H-thieno[2,3-d]azepine] |
| > 8.00 | CN(C)S(=O)(=O)c1cc2c(s1)CCNCC2 [Example 27, 5,6,7,8-Tetrahydro-4H-thieno[2,3-d]azepine-2-sulfonic acid dimethylamide] |
| > 8.00 | Cc1c(S(=O)(=O)N(C)C)sc2c1CCNCC2 [Example 28, 3-Methyl-5,6,7,8-tetrahydro-4H-thieno[2,3-d]azepine-2-sulfonic acid dimethylamide] |
| > 8.00 | FC(F)(F)c1cc2c(s1)CCNCC2 [Example 40, 2-Trifluoromethyl-5,6,7,8-tetrahydro-4H-thieno[2,3-d]azepine] |
| > 8.00 | FC(F)(F)c1sc2c(c1Br)CCNCC2 [Example 42, 3-Bromo-2-trifluoromethyl-5,6,7,8-tetrahydro-4H-thieno[2,3-d]azepine] |
| > 8.00 | COc1c(C(C)(C)C)sc2c1CCNCC2 [Example 44, 2-tert-Butyl-3-methoxy-5,6,7,8-tetrahydro-4H-thieno[2,3-d]azepine] |
